Reference: US20070078161A1, “Crystalline forms of (+)- and (-) erythro-mefloquine hydrochloride” (priority 2003, published 2007)

Experiments:
[1] = solubility behaviour in ethanol/water mixtures; format: physicochemical
Excerpt: This effect may be used to initiate precipitation and crystallisation by the addition of water to a solution of (+)- or (−)-mefloquine hydrochloride and also to apply seeding techniques using seeds with a desired morphology such as crystalline form A in cubic or cube-like form. However, other non-solvents may be used to initiate precipitation from solution in a solvent such as hydrocarbons (hexane, heptane, cyclohexane and methylcyclohexane) or ethers (t-butyl methyl ether).

[2] = grinding of form A sample, X-ray powder diffraction; format: physicochemical; details: slightly ground to particle size approximately 1 to 10 μm
Method: This sample was slightly ground to reduce the particle size to approximately 1 to 10 μm and to avoid this textural effect. The strongest peak intensities are thus reduced and a few of the small peaks disappear.
Powder X-ray Diffraction (PXRD): PXRD is performed on a Philips 1710 powder X-ray diffractometer using CuKα radiation. D-spacings are calculated from the 2θ values using the wavelength of 1.54060 Å. Generally, 2θ values are within an error of ±0.1-0.2°. The experimental error on the d-spacing values is therefore dependent on the peak location.

[3] = suspensions of mixtures of forms A, B and C, 2° C. to 75° C.

## Cl.OC(c1cc(C(F)(F)F)nc2c(C(F)(F)F)cccc12)C1CCCCN1 (stereo not drawn) [(+)- or (−)-mefloquine hydrochloride]
[1]; lower water amounts
  solubility on addition of certain amounts of water to pure ethanol: increased
[1]; water content of above 50% (v/v)
  solubility relative to pure ethanol: lower than in pure ethanol

## Cl.OC(c1cc(C(F)(F)F)nc2c(C(F)(F)F)cccc12)C1CCCCN1 (stereo not shown) [form A]
[2]
  crystal form after grinding: still present after grinding

## Cl.OC(c1cc(C(F)(F)F)nc2c(C(F)(F)F)cccc12)C1CCCCN1 (stereo not shown) [form B]
[3]
  relative stability of crystalline forms: metastable
